Tests used:
Mus musculus = species: Mus musculus; experiment: Concentration that blocked potassium evoked release of [3H]D-aspartate from mouse cerebellar granule neurons; format: functional
Cavia porcellus = species: Cavia porcellus; experiment: Effect on [Ca2+]-induced contractions in potassium-depolarized guinea pig taenia coli; format: functional

- IC50 (Mus musculus): ~2400 nM
Structure (SMILES): COc1ccc(OC)c(-n2c(N)nc3cc(C(F)(F)F)ccc32)c1
- Concentration (Cavia porcellus): 30 µM

Reference: ChEMBL document CHEMBL1128958, “Synthesis and biological activity of the neuronal calcium channel blocker 2-amino-1-(2,5-dimethoxyphenyl)-5-trifluoromethyl benzimidazole (NS-649)” (Bioorg Med Chem Lett, 1996)
